PMC3506555, “[^11C]phenytoin revisited: synthesis by [^11C]CO carbonylation and first evaluation as a P-gp tracer in rats” (EJNMMI Research, 2012)
Several values for one entry are separate records, joined by “and”; a condition that tells them apart may be missing. Equal entries are not always repeated.

Experiment: Metabolite analysis in plasma after i.v. [11C]phenytoin
Type: in vivo, Sprague–Dawley rats
Settings: for Percentage of intact [11C]phenytoin, plasma: rat plasma, N = 2
Description: Chemicals were obtained from Sigma Aldrich (St. Louis, MO, USA) and were used without further purification. All reactions were carried out under an argon atmosphere unless stated otherwise. [^11C]CO2 was produced using an IBA Cyclone 18/9 cyclotron (IBA, Louvain-La-Neuve, Belgium) by the ^14N(p,α)^11C nuclear reaction performed in a 0.5% O2/N2 gas mixture. Water was purified over a Millipore filter (Millipore, Leiden, The Netherlands). The silica gel used as stationary phase for flash column chromatography was grade 9385, 230 to 400 mesh, 60 Å and obtained from Sigma Aldrich. Chemical shifts (δ) of nuclear magnetic resonance (NMR) spectra were defined relative to the signal of the solvent (7.26 for CDCl3 and 2.50 for DMSO-d6) and measured on a Bruker Avance 250 (Bruker, Billerica, MA, USA), with δ reported in parts per million relative to the solvent. Infrared (IR) spectra were obtained using a Shimadzu FTIR-8400 S (Shimadzu, Kyoto, Japan), and wavelengths (ν) are reported in per centimeter and (s), (m) and (w), indicating strong, moderate and weak signal, respectively. Electrospray ionization high-resolution mass spectrometry (ESI-HRMS) was carried out using a Bruker microTOF-Q instrument in positive ion mode (capillary potential of 4.500 V); electrospray ionization mass spectrometry was carried out using an AB Sciex Qtrap 5500 LC-MS/MS instrument (AB Sciex, Foster City, CA, USA) in negative ion mode. Semi-preparative high performance liquid chromatography (HPLC) was performed on an ACE 5-μM C18, 250*10-mm column (Alltech, Nicholasville, KY, USA) using the following settings: wavelength 230 nm, eluent MeCN/H2O/TFA 60/40/0.15 (v/v/v) and flow 4 mL·min^−1 (method A). Analytical HPLC was performed on a Kromasil 100 C18 10-μM (4.6 to 250 mm) column (Grace Alltech, Breda, The Netherlands) with the following settings: wavelength 230 nm, eluent acetonitrile/water/[…] 75/25/0.2 (v/v/v) and flow 1 mL·min^−1 (method B). Metabolite analysis was performed on a Gemini C18 5-μm (10 to 250 mm) column (Phenomenex, Torrance, CA, USA) (method C) with gradient and a mixture of (A) acetonitrile and (B) 0.1% trifluoro acetic acid in H2O as eluent according to the following scheme: 0 min, 90% B at 0.25 mL·min^−1; 0.5 min, 20% B at 4 mL·min^−1; 9.0 min, 30% B at 4 mL·min^−1; 13 min, 30% B at 4 mL·min^−1; 14.0 min, 90% B at 4.0 mL·min^−1 and 15 min, 90% B at 0.25 mL·min^−1. Tetrahydrofuran (THF), which was used during experiments, was distilled over LiAlH4 just prior to the experiments unless stated otherwise.
To study the metabolic profile of [^11C]phenytoin in the plasma and brain, five male Sprague–Dawley rats were injected with 150 to 250 MBq [^11C]phenytoin in the tail vein under isoflurane anesthesia. Three of these animals were pretreated with 15 mg·kg^−1 tariquidar 20 min prior to [^11C]phenytoin administration. Three arterial blood samples of 0.5, 0.8 and 1.2 mL were withdrawn at 10, 30 and 45 min or at 5, 15 and 25 min after [^11C]phenytoin injection, respectively. Immediately following the last blood sample, the rats were euthanized, and the brain was isolated. All blood samples were collected in heparin tubes and centrifuged at 4.000 rpm for 5 min at 4°C (Hettich Universal 16, Depex B.V., The Netherlands). Plasma was separated from blood cells and, between 0.3 and 0.7 mL, was loaded onto a tC-18 Sep-Pak (Waters, The Netherlands) and washed with 20 mL of water. The eluate was defined as the polar radiolabeled metabolite fraction. Thereafter, the tC-18 Sep-Pak was eluted with 1.5 ml of methanol. This eluate was defined as the nonpolar fraction and was analyzed using HPLC method C. Brain tissue was homogenized with an ultrasonic homogenizer (Braunsonic 1510, Kronberg, Germany) in water, under ice cooling, and subsequently centrifuged at 4,000 rpm for 5 min at 4°C. Separated supernatants were loaded onto a tC-18 Sep-Pak and washed with 20 mL water to obtain the polar fraction.

O=C1N[11C](=O)NC1(c1ccccc1)c1ccccc1 [[^11C]phenytoin]
Percentage of intact [11C]phenytoin, plasma (5 min after injection): 60 ± 7%
Percentage of intact [11C]phenytoin, plasma (10 min after injection): 50 ± 16%
Percentage of intact [11C]phenytoin, plasma (15 min after injection): 38 ± 3%
Percentage of intact [11C]phenytoin, plasma (25 min after injection): 28 ± 2%
Percentage of intact [11C]phenytoin, plasma (30 min after injection): 32 ± 18%
Percentage of intact [11C]phenytoin, plasma (45 min after injection): 19% and 19 ± 8%
Metabolism in tariquidar-treated versus untreated rats (tariquidar 15 mg·kg^−1, 20 min prior to tracer): no difference in metabolism
